Patent publication US4704403A, “3-(2,2,2-trisubstituted hydrazinium) propionates” (priority 1983, dated 1987)

Legend:
arterial pressure = test: Effect on the arterial pressure in narcotized cats; format: in vivo
Protocol: (§1) The effect of the compounds according to the present invention on the arterial pressure and vegetative responses has been studied in acute experiments on cats with a mass of 2.8-4.0 kg narcotized by α-glucochloralose (90 mg/kg) and urethane (100 mg/kg intraperitoneally).
(§2) The arterial pressure in the common carotid artery, breathing and electrocardiogram of the second standard lead were recorded.
(§3) The effect of the compounds according to the present invention on hemodynamic effects of acetylcholine (0.1 μg/kg) neoepinephrine (0.2 μg/kg), noradrenaline (1 μg/kg) and histamine (1.5 μg/kg) was also studied. In some experiments instead of neoepinephrine and noradrenaline adrenaline was used (1 μg/kg). The peripheral part of the vagus nerve was irritated by supromaximum square pulses of the frequency of 30 Hz and duration of 0.1 ms.

white mice = test: Acute toxicity upon intraperitoneal administration to white mice; format: in vivo; conditions: i.p.
Protocol: (§4) The acute toxicity of the compounds according to the present invention was studied on white mice of both sexes with a mass of 20-25 g. A saturated aqueous solution of the compounds or a suspension in Tween-80 was administered to the animals intraperitoneally. The observation over the animals was carried out for 14 days. The results obtained were processed following the Litchfield-Wilkoxon method. As it follows from the data shown in Table 5 hereinbelow, the studied compounds have a very low acute toxicity, thus providing a large spectrum of the therapeutic effect.

[1] = as above; format: in vivo; conditions: mouse, in vivo, ip, 14 days observation, average values with confidential limits at P=0.05
Protocol: as §4

[2] = system: hemodynamic effects of acetylcholine; test: Effect on vegetative responses: acetylcholine; format: in vivo, cats; conditions: dose "-10" [sic] (unit not given); acetylcholine 0.1 μg/kg
Protocol: as §1, §2, §3

[3] = system: arrhythmia caused by introduction of calcium chloride; test: Antiarrhythmic activity on the model of arrhythmia caused by calcium chloride (antagonism towards calcium); format: in vivo, mice; conditions: for Dose of calcium chloride causing arrhythmia: control 85.0; for Dose of calcium chloride causing heart arrest: control 100.0
Protocol: In experiments on white mice with a mass of 18-25 g narcotized with urethane an electrocardiogram was recorded in the second standard lead. A 2% solution of calcium chloride was introduced into the tail vein at a constant rate (0.01 ml for 2 seconds). The dose of calcium chloride causing arrhythmia and the dose causing heart arrest were determined. In experimental groups the test compounds were administered 20-40 minutes prior to the beginning of the experiment intraperitoneally.

[4] = system: hemodynamic effects of neoepinephrine; test: Effect on vegetative responses: neoepinephrine; format: in vivo, cats; conditions: neoepinephrine 0.2 μg/kg
Protocol: as §1, §2, §3

[5] = system: hemodynamic effects of noradrenaline; test: Effect on vegetative responses: noradrenaline; format: in vivo, cats; conditions: noradrenaline 1 μg/kg
Protocol: as §1, §2, §3

Angiotension = test: Effect on vegetative responses: angiotensin; format: in vivo, cats; conditions: dose 5 (unit not given)
[6] = system: hypertensive male rats of the Akamoto-Aoki line; test: Variation of arterial pressure upon intraperitoneal administration to hypertensive rats; format: in vivo
Protocol: The study of hypotensive properties of the compounds of this invention has been carried out of hypertensive male rats of the Akamoto-Aoki line aged 25-30 weeks. The animals were divided into groups (7-10 rats in each) and for 2 weeks before the beginning of the experiment they were subjected to an every-day training for adaptation to the unit for measurements of the arterial pressure. The systolic and diastolic arterial pressure were measured indirectly on the tail artery. The level of the arterial pressure prior to administration of the test compounds was measured by way of a triple determination thereof--2 days, one day and right before the administration of the preparation. The compounds were administered intraperitoneally in the form of a 2.5% aqueous solution or a 2.5% suspension in Twin-80 in the dose of 50 mg/kg. The measurement of the arterial pressure was effected 30 minutes, 1, 2, 3 and 4 hours and in some cases 24 hours after the administration of the preparation. For a number of compounds featuring a high efficiency, also determined was the dose causing reduction of the arterial pressure by 30% as compared with the starting level (ED30). The statistical processing of the data obtained was carried out using the Student certainty criterion.

[7] = system: spontaneously hypertensive rats of the Akamoto-Aoki line; test: Systolic arterial pressure of spontaneously hypertensive rats upon a repeated peroral administration; format: in vivo
Protocol: Thus, after a four-days course of administration (once a day, per os) of the compounds according to the present invention an essential reduction of the arterial pressure in the test animals is observed which is not returned to the initial level even an expiration of four days after discontinuation of the preparation administration, whereas the hypotensive effect of nifedipine is manifested for only 8 hours.

[8] = system: spontaneously hypertensive rats of the Akamoto-Aoki line; test: Hypotensive activity on spontaneously hypertensive rats at a single peroral administration; format: in vivo; conditions: for Systolic arterial pressure: ethyl 40 mg/kg (initial 198), allyl 50 mg/kg (initial 184), benzyl 40 mg/kg (initial 196); for Systolic arterial pressure, percent in parentheses (decrease from initial): ethyl 40, allyl 50, benzyl 40 mg/kg
[9] = dose "-10" [sic] (unit not given)
[10] = 30 minutes, 50 mg/kg i.p. (nifedipine 1 mg/kg i.p.)
[11] = 1 hour, 50 mg/kg i.p. (nifedipine 1 mg/kg i.p.)
[12] = 2 hours, 50 mg/kg i.p. (nifedipine 1 mg/kg i.p.)
[13] = 4 hours, 50 mg/kg i.p. (nifedipine 1 mg/kg i.p.)
[14] = after four-days p.o. course, benzyl 40 mg/kg, allyl 50 mg/kg, nifedipine dose not given
[15] = p.o. once a day, benzyl 40 mg/kg, allyl 50 mg/kg, nifedipine dose not given
[16] = p.o., benzyl 40 mg/kg, allyl 50 mg/kg, nifedipine dose not given

Question: For `CCCCCCCCCCCCCCCC[N+](C)(C)NCCC(=O)[O-]` [3-(2,2-dimethyl-2-hexadecylhydrazinium)propionate], which “Variation of arterial pressure” value (arterial pressure; dose 3 (unit not given)) is on record?
Answer: Its value is -5%.

Question: And the “Variation of arterial pressure” value (arterial pressure; [9])?
Answer: The value was -3%.

Question: And the “Relative toxicity with respect to quinidine (LD50 / LD50 of quinidine)” value (white mice)?
Answer: The value was 9.3.

Question: What about the LD50 at 336 h [1] of the same compound?
Answer: The LD50 at 336 h was 1450 mg/kg.

Question: And the “Variation of the effect of acetylcholine” value [2]?
Answer: The value was -10%.

Question: And the “Dose of calcium chloride causing arrhythmia” value ([3]; compound dose 5 mg/kg i.p.)?
Answer: The value was 130.5.

Question: What about the “Dose of calcium chloride causing heart arrest” value ([3]; compound dose 5 mg/kg i.p.) of the same compound?
Answer: The value was 140.6.

Question: And the “Dose of calcium chloride causing arrhythmia” value ([3]; compound dose 25 mg/kg i.p.)?
Answer: Its value is 102.7.

Question: And the “Dose of calcium chloride causing heart arrest” value ([3]; compound dose 25 mg/kg i.p.)?
Answer: The value was 124.5.

Question: And the “Hemodynamic effect, Neoepinephrine” value ([4]; dose 3 (unit not given))?
Answer: The value was -10%.

Question: What about the “Hemodynamic effect, Neoepinephrine” value [4, 9] of the same compound?
Answer: Its value is -30%.

Question: What about the “Hemodynamic effect, Noradrenaline” value ([5]; dose 3 (unit not given)) of the same compound?
Answer: The value was -15%.

Question: And the “Hemodynamic effect, Noradrenaline” value [5, 9]?
Answer: Its value is -80%.

Question: Which “Hemodynamic effect, Angiotension” value (Angiotension) does the source give for `C=CC[N+](C)(C)NCCC(=O)[O-]` [3-(2,2-dimethyl-2-allylhydrazinium)propionate semihydrate] here?
Answer: The value was -70%.

Question: What about the “Average variation of the diastolic arterial pressure” value [6, 10] of the same compound?
Answer: Its value is -10 % of the initial.

Question: And the “Average variation of the systolic arterial pressure” value [6, 10]?
Answer: Its value is -12 % of the initial.

Question: What about the “Average variation of the diastolic arterial pressure” value [6, 11] of the same compound?
Answer: Its value is -23 % of the initial.

Question: And the “Average variation of the systolic arterial pressure” value [6, 11]?
Answer: Its value is -12 % of the initial.

Question: And the “Average variation of the diastolic arterial pressure” value [6, 12]?
Answer: The value was -29 % of the initial.

Question: And the “Average variation of the systolic arterial pressure” value [6, 12]?
Answer: The value was -18 % of the initial.

Question: What about the “Average variation of the diastolic arterial pressure” value [6, 13] of the same compound?
Answer: Its value is -31 % of the initial.

Question: What about the “Average variation of the systolic arterial pressure” value [6, 13] of the same compound?
Answer: The value was -14 % of the initial.

Question: And the “Average variation of the diastolic arterial pressure” value ([6]; 24 hours, 50 mg/kg i.p.)?
Answer: Its value is -7 % of the initial.

Question: What about the “Average variation of the systolic arterial pressure” value ([6]; 24 hours, 50 mg/kg i.p.) of the same compound?
Answer: Its value is -3 % of the initial.

Question: And the “Relative toxicity with respect to quinidine (LD50 / LD50 of quinidine)” value (white mice)?
Answer: Its value is 67.9.

Question: And the LD50 at 336 h [1]?
Answer: Its LD50 at 336 h is 10600 mg/kg.

Question: What about the “Systolic arterial pressure, 5th day” value [7, 14] of the same compound?
Answer: Its value is 126 mm Hg.

Question: What about the “Systolic arterial pressure, 8th day” value [7, 14] of the same compound?
Answer: The value was 168 mm Hg.

Question: What about the “Systolic arterial pressure, 10th day” value [7, 14] of the same compound?
Answer: Its value is 175 mm Hg.

Question: And the “Systolic arterial pressure, 2nd day after administration” value ([7]; p.o. once a day, allyl 50 mg/kg, nifedipine dose not given)?
Answer: The value was 132.8 mm Hg.

Question: And the “Systolic arterial pressure, 1st day after administration” value ([7]; p.o. once a day, benzyl 40 mg/kg (initial 195.8), allyl 50 mg/kg (initial 176.6), nifedipine dose not given (initial 184.0))?
Answer: The value was 150.6 mm Hg.

Question: What about the “Systolic arterial pressure, 2nd day before administration” value [7, 15] of the same compound?
Answer: Its value is 166.8 mm Hg.

Question: What about the “Systolic arterial pressure, 3rd day after administration” value [7, 15] of the same compound?
Answer: Its value is 118 mm Hg.

Question: What about the “Systolic arterial pressure, 4th day after administration” value [7, 15] of the same compound?
Answer: Its value is 118.6 mm Hg.

Question: And the “Systolic arterial pressure, 4th day before administration” value [7, 15]?
Answer: Its value is 129 mm Hg.

Question: And the “Percent in parentheses (change of systolic pressure from initial), 2nd day after administration” value ([7]; p.o., allyl 50 mg/kg, nifedipine dose not given)?
Answer: The value was 25%.

Question: And the “Percent in parentheses (change of systolic pressure from initial), 1st day after administration” value [7, 16]?
Answer: The value was 15%.

Question: And the “Percent in parentheses (change of systolic pressure from initial), 2nd day before administration” value [7, 16]?
Answer: Its value is 6%.

Question: What about the “Percent in parentheses (change of systolic pressure from initial), 3rd day after administration” value [7, 16] of the same compound?
Answer: Its value is 33%.

Question: What about the “Percent in parentheses (change of systolic pressure from initial), 4th day after administration” value [7, 16] of the same compound?
Answer: The value was 33%.

Question: And the “Percent in parentheses (change of systolic pressure from initial), 4th day before administration” value [7, 16]?
Answer: Its value is 27%.

Question: And the “Percent in parentheses (change of systolic pressure from initial), 5th day” value [7, 16]?
Answer: The value was 29%.

Question: What about the “Percent in parentheses (change of systolic pressure from initial), 8th day” value [7, 16] of the same compound?
Answer: Its value is 5%.

Question: What about the “Dose of calcium chloride causing arrhythmia” value ([3]; compound dose 5 mg/kg i.p.) of the same compound?
Answer: The value was 99.6.

Question: And the “Dose of calcium chloride causing heart arrest” value ([3]; compound dose 5 mg/kg i.p.)?
Answer: The value was 118.0.

Question: And the “Dose of calcium chloride causing arrhythmia” value ([3]; compound dose 25 mg/kg i.p.)?
Answer: The value was 95.2.

Question: And the “Dose of calcium chloride causing heart arrest” value ([3]; compound dose 25 mg/kg i.p.)?
Answer: Its value is 103.0.

Question: What about the Systolic arterial pressure ([8]; 3 hours after single p.o.) of the same compound?
Answer: The Systolic arterial pressure was 153 mm Hg.

Question: What about the “Systolic arterial pressure, percent in parentheses (decrease from initial)” value ([8]; 3 hours after single p.o.) of the same compound?
Answer: Its value is 17%.

Question: What about the Systolic arterial pressure ([8]; 5 hours after single p.o.) of the same compound?
Answer: Its Systolic arterial pressure is 155 mm Hg.

Question: What about the “Systolic arterial pressure, percent in parentheses (decrease from initial)” value ([8]; 5 hours after single p.o.) of the same compound?
Answer: Its value is 16%.

Question: And the Systolic arterial pressure ([8]; 24 hours after single p.o.)?
Answer: The Systolic arterial pressure was 170 mm Hg.

Question: And the “Systolic arterial pressure, percent in parentheses (decrease from initial)” value ([8]; 24 hours after single p.o.)?
Answer: The value was 8%.

Question: What about the “Hemodynamic effect, Neoepinephrine” value ([4]; dose 5 (unit not given)) of the same compound?
Answer: The value was -20%.
